Results taken from patent US10392368B2, “Pyrazolo and triazolo bicyclic compounds as JAK kinase inhibitors” (THERAVANCE BIOPHARMA R&D IP, LLC, priority 2017, dated 2019).

Tests used:
JAK3 = target: T1, JAK3 (Homo sapiens, UniProt P52333); assay: Biochemical JAK3 kinase assay (LanthaScreen); parameters: GST; purchased Life Technologies; details: for Ki: read-out: JAK 3 (pKi) (converted); for JAK3 (pKi)-JAK1 (pKi): selectivity: difference of pKi JAK3 and pKi JAK1
T1 sequence (P52333 1-1124): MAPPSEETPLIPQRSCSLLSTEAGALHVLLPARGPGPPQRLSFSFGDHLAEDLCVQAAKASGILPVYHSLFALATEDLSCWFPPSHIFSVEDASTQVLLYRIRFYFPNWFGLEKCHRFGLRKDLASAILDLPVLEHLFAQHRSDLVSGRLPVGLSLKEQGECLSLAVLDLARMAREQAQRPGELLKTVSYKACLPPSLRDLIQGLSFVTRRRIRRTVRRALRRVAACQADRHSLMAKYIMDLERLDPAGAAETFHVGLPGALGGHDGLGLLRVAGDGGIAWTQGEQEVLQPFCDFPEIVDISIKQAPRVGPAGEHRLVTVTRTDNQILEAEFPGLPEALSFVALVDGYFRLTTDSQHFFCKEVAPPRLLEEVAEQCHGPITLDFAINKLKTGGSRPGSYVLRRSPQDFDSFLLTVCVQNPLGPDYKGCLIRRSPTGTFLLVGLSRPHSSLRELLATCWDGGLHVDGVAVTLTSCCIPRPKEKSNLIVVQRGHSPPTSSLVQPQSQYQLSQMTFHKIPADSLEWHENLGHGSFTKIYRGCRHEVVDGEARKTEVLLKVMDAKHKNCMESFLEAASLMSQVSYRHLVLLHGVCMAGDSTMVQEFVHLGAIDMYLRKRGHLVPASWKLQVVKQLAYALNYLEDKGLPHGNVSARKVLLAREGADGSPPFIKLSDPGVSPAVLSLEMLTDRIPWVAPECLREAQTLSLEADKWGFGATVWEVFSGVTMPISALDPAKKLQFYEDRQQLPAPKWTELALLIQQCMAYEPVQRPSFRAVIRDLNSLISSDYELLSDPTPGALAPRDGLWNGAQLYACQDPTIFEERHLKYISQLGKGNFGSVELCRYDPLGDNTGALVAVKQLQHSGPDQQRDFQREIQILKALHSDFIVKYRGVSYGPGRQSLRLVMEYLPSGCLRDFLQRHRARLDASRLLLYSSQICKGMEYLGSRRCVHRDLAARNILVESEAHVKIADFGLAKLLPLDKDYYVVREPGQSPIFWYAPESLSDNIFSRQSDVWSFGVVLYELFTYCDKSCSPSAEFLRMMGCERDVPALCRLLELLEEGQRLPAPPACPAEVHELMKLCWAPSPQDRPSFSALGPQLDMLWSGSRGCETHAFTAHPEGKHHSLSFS
Method in brief: (§1)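 GST-tagged JAK enzyme and GFP-STAT1 peptide preincubated with compound 1 h, then ATP added; 1 h kinase reaction at ambient temperature, pH 7.5 HEPES/MgCl2 buffer, 1% DMSO. Tb-anti-pSTAT1 (pTyr701) TR-FRET, 520/495 nm ratio; IC50 from 4-parameter fit, converted to pKi via Cheng-Prusoff.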

[1] = Colon and plasma mouse pharmacokinetics; format: in vivo; details: mouse, colon tissue / plasma; male Balb/c mice, 10 mg/kg PO; 0.5, 2 and 6 hours; read-out: colon to plasma ratio (colon AUC to plasma AUC)
Procedure: 6 male Balb/c mice were administered 10 mg/kg of compound in 1% HPMC+0.1% Tween-80 by PO administration. At 0.5, 2 and 6 hours after dose administration, animals were anesthetized, and terminal blood samples were collected by cardiac puncture, followed by collection of colon contents and colon tissue.
Blood samples were collected into K2EDTA and stored on wet ice until processed to plasma by centrifugation (12000 rpm at 4° C.). Plasma samples were transferred to cluster tubes and placed on dry ice prior to freezer storage. The colon contents from each animal were collected at each terminal blood collection time point. The colon tissues were flushed with saline and patted dry. The colon and colon content tissues were homogenized using sterile water containing 0.1% formic acid 9:1 (water:tissue, v/w). The homogenized tissues and colon contents were transferred to cluster tubes and placed on dry ice prior to freezer storage. All samples were analyzed using LC/MS/MS against analytical standards.
The composite pharmacokinetic parameters of the compounds were determined by non-compartmental analysis using Phoenix WinNonlin Version 6 (Certara, St. Louis, Mo.) and using mean values from 2 animals/time point. For plasma concentrations below the quantification limit (BQL), the lowest concentration measurable or the BLOQ (below limit of quantification) was used.
A colon to plasma ratio was determined as the ratio of the colon AUC to the plasma AUC.

JAK1 = target: T2, JAK1 (Homo sapiens, UniProt P23458); assay: Biochemical JAK1 kinase assay (LanthaScreen); details: read-out: JAK 1 (pKi) (converted)
T2 construct: GST; purchased Life Technologies
Method in brief: as §1

T2 sequence (P23458 whole entry): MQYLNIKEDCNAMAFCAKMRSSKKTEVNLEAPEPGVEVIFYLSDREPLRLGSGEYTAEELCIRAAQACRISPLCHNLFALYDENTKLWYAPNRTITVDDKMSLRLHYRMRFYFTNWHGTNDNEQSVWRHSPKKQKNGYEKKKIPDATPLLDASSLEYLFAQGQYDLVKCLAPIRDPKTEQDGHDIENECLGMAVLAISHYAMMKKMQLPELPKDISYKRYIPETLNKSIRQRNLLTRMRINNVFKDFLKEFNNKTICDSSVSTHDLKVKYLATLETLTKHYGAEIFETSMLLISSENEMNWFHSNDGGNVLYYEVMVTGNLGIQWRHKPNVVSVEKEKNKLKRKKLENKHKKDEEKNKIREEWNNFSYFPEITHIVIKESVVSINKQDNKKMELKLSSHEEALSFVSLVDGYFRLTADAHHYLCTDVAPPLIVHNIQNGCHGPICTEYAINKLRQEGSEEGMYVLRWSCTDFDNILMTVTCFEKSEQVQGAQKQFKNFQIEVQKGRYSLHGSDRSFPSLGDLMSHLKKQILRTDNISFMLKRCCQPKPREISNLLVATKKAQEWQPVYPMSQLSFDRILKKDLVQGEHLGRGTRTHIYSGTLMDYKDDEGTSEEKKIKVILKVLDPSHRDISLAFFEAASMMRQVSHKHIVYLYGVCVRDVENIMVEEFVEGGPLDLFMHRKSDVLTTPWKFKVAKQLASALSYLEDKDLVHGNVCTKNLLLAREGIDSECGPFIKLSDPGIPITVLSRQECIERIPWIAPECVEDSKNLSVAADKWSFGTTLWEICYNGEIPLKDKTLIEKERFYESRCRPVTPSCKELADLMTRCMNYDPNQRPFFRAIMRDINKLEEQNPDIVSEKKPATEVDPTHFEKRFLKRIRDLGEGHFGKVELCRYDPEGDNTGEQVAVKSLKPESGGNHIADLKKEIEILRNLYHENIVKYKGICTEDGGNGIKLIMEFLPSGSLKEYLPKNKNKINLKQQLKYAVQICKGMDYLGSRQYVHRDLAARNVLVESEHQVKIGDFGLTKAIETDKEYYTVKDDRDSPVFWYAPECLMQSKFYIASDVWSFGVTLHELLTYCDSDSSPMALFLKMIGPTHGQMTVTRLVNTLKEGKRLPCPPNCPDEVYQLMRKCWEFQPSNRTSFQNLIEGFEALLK

SMILES: CN(C)C/C=C/C(=O)N1CC(COc2cc(-c3ccc(O)cc3)cc3[nH]ncc23)C1 [Compound 1, (E)-4-(dimethylamino)-1-(3-(((6-(4-hydroxyphenyl)-1H-indazol-4-yl)oxy)methyl)azetidin-1-yl)but-2-en-1-one]
- Ki (JAK3): < 0.1 nM
- JAK3 (pKi)-JAK1 (pKi) (JAK3): A (a value of 3 or above)
- Kp [1]: > 1250
- Ki (JAK1): > 100 nM

SMILES: C=CC(=O)N1CC[C@H](Oc2cc(-c3ccc(O)c(Cl)c3)cc3[nH]ncc23)C1 [Compound 2, (S)-1-(3-((6-(3-chloro-4-hydroxyphenyl)-1H-indazol-4-yl)oxy)pyrrolidin-1-yl)prop-2-en-1-one]
- Ki (JAK3): < 0.1 nM
- JAK3 (pKi)-JAK1 (pKi) (JAK3): A (a value of 3 or above)
- Kp [1]: > 1250
- Ki (JAK1): > 100 nM

SMILES: CN(C)C/C=C/C(=O)N1CC(C(C)(C)Oc2cc(-c3ccc(O)c(Cl)c3)cc3[nH]ncc23)C1 [Compound 3, (E)-1-(3-(2-((6-(3-chloro-4-hydroxyphenyl)-1H-indazol-4-yl)oxy)propan-2-yl)azetidin-1-yl)-4-(dimethylamino)but-2-en-1-one]
- Ki (JAK3): 0.1 to 1 nM
- JAK3 (pKi)-JAK1 (pKi) (JAK3): A (a value of 3 or above)
- Kp [1]: > 1250
- Ki (JAK1): > 100 nM

SMILES: C=CC(=O)N1CC(COc2nc(-c3ccc(O)cc3)nc3[nH]ncc23)C1 [Compound 4, 1-(3-(((6-(4-hydroxyphenyl)-1H-pyrazolo[3,4-d]pyrimidin-4-yl)oxy)methyl)azetidin-1-yl)prop-2-en-1-one]
- Ki (JAK3): < 0.1 nM
- JAK3 (pKi)-JAK1 (pKi) (JAK3): A (a value of 3 or above)
- Kp [1]: > 1250
- Ki (JAK1): > 100 nM

SMILES: CN(C)C/C=C/C(=O)N1CC(COc2cc(-c3ccc(O)c(F)c3)cc3[nH]ncc23)C1 [Compound 5, (E)-4-(dimethylamino)-1-(3-(((6-(3-fluoro-4-hydroxyphenyl)-1H-indazol-4-yl)oxy)methyl)azetidin-1-yl)but-2-en-1-one]
- Ki (JAK3): < 0.1 nM
- JAK3 (pKi)-JAK1 (pKi) (JAK3): A (a value of 3 or above)
- Kp [1]: > 200
- Ki (JAK1): > 100 nM

SMILES: C=CC(=O)N1CCO[C@@H](C(=O)Nc2cc(-c3ccc(O)cc3)cc3[nH]ncc23)C1 [Compound 6, (R)-4-acryloyl-N-(6-(4-hydroxyphenyl)-1H-indazol-4-yl)morpholine-2-carboxamide]
- Ki (JAK3): < 0.1 nM
- JAK3 (pKi)-JAK1 (pKi) (JAK3): A (a value of 3 or above)
- Kp [1]: > 1250
- Ki (JAK1): > 100 nM

SMILES: C=CC(=O)N1CC[C@H](COc2cc(-c3ccc(O)cc3)cc3[nH]ncc23)C1 [Compound 7, (S)-1-(3-(((6-(4-hydroxyphenyl)-1H-indazol-4-yl)oxy)methyl)pyrrolidin-1-yl)prop-2-en-1-one]
- Ki (JAK3): 0.1 to 1 nM
- JAK3 (pKi)-JAK1 (pKi) (JAK3): A (a value of 3 or above)
- Kp [1]: > 1250
- Ki (JAK1): > 100 nM

SMILES: CN(C)C/C=C/C(=O)N1CC(C#N)(COc2cc(-c3ccc(O)c(F)c3)cc3[nH]ncc23)C1 [Compound 8, (E)-1-(4-(dimethylamino)but-2-enoyl)-3-(((6-(3-fluoro-4-hydroxyphenyl)-1Hindazol-4-yl)oxy)methyl)azetidine-3-carbonitrile]
- Ki (JAK3): < 0.1 nM
- JAK3 (pKi)-JAK1 (pKi) (JAK3): A (a value of 3 or above)
- Kp [1]: > 1250
- Ki (JAK1): > 100 nM

SMILES: CN(C)C/C=C/C(=O)N1CCC(C)(Oc2cc(-c3ccc(O)cc3)cc3[nH]ncc23)CC1 [Compound 9, (E)-4-(dimethylamino)-1-(4-((6-(4-hydroxyphenyl)-1H-indazol-4-yl)oxy)-4-methylpiperidin-1-yl)but-2-en-1-one]
- Ki (JAK3): 0.1 to 1 nM
- JAK3 (pKi)-JAK1 (pKi) (JAK3): A (a value of 3 or above)
- Kp [1]: > 200
- Ki (JAK1): > 100 nM

SMILES: C=CC(=O)N1CC(C(C)(C)Oc2cc(-c3ccc(O)cc3)nc3[nH]ncc23)C1 [Compound 20, 1-(3-(2-((6-(4-hydroxyphenyl)-1H-pyrazolo[3,4-b]pyridin-4-yl)oxy)propan-2-yl)azetidin-1-yl)prop-2-en-1-one]
- Ki (JAK3): < 0.1 nM
- JAK3 (pKi)-JAK1 (pKi) (JAK3): A (a value of 3 or above)
- Kp [1]: > 200
- Ki (JAK1): > 100 nM

SMILES: C=CC(=O)N1CC(C)(COc2nc(-c3ccc(O)c(F)c3)nc3[nH]ncc23)C1 [Compound 21, 1-(3-(((6-(3-fluoro-4-hydroxyphenyl)-1H-pyrazolo[3,4-d]pyrimidin-4-yl)oxy)methyl)-3-methylazetidin-1-yl)prop-2-en-1-one]
- Ki (JAK3): < 0.1 nM
- JAK3 (pKi)-JAK1 (pKi) (JAK3): A (a value of 3 or above)
- Kp [1]: > 1250
- Ki (JAK1): > 100 nM

SMILES: C=CC(=O)N1CC(CC)(COc2cc(-c3ccc(O)cc3)nc3[nH]ncc23)C1 [Compound 22, 1-(3-ethyl-3-(((6-(4-hydroxyphenyl)-1H-pyrazolo[3,4-b]pyridin-4-yl)oxy)methyl)azetidin-1-yl)prop-2-en-1-one]
- Ki (JAK3): < 0.1 nM
- JAK3 (pKi)-JAK1 (pKi) (JAK3): A (a value of 3 or above)
- Kp [1]: > 1250
- Ki (JAK1): > 100 nM
